{"source": "patent US20200237871A1", "about": "“METHODS FOR MITIGATING LIVER INJURY AND PROMOTING LIVER HYPERTROPHY, REGENERATION AND CELL ENGRAFTMENT IN CONJUNCTION WITH RADIATION AND/OR RADIOMIMETIC TREATMENTS” (Janssen Pharmaceutica NV, priority 2019, published 2020)", "type_in_all_cases": "in vivo, mouse", "key": {"[1]": {"tested_on": "DPPIV−/− knockout mice", "assay": "LSEC engraftment/repopulation of irradiated liver by DPPIV staining (Examples 2 and 3)", "description": "8-12-week-old male and female Di-peptyl peptidase IV (DPPIV) −/− knockout mice and 8-12-week-old male and female C57Bl6 mice were used in this study. Animals were weighed in the beginning of the experiment and before tissue collection. All animals were housed in the Institute for Animal Studies at Albert Einstein College of medicine and fed regular rodent chow. All experiments were performed to according to protocols approved by Institutional Animal Care and Use Committee at Albert Einstein College of Medicine. Animals were made cirrhotic using CCl4 administration (intraperitoneal [IP] injections twice a week for at least 11 weeks).\nImage-guided external beam irradiation was performed using a small animal radiation research platform (SARRP, Xstrahl Inc., Suwanee, Ga.). Mice were given gastrografin contrast through gavage to improve visualization of the gastrointestinal (GI) tract. After approximately 2 minutes, mice were positioned on a tubular couch and anesthetized with ˜2% Isofluorane (Isothesia, USP) in 2 L/min pure oxygen. A cone-beam computed tomography (CBCT) scan was acquired and a treatment plan irradiating the median lobe and right lobe was generated using the MuriPlan software. […] Within the targeted lobes, the position of the isocenter was chosen to minimize irradiation of the GI tract, spine, and heart (the maximum dose to these organs was kept below 10 Gy). Targets were irradiated with 50 Gy X-rays at 220 kVp energy and 13 mA tube current (dose rate of 2.4-2.5 Gy/min) using a 1 mm copper filter for beam hardening.\nTPOm was diluted in sterile PBS to a 10 mg/ml stock. The stock was stored at −20° C. and allowed to come to room temperature prior to administration. TPOm was administered as a single dose (300 μg/kg) via subcutaneous injection 10 minutes after the transplant procedure.\nDPPIV was selected as a marker for engraftment of exogenous LSECs in the DPPIV (−/−) animals. […] Slide imaging was done using a Perkin Elmer P250 High Capacity Slide Scanner.\nLSECs were isolated from the single-cell suspension using CD146 microbeads (Miltenyi Biotec GmbH #130-092-007).\nFollowing isolation of LSECs, 500×10^5 LSECs are transplanted via intrasplenic injection into healthy adult mice anesthetized with Isoflurane (Isothesia, USP) 24 hrs post HIR. Buprenorphine is given post-op as an analgesic.\nTo test the efficacy of TPOm as an agent that can cause LSEC engraftment, DPPIV−/− knockout mice received 50GY hepatic irradiation (HIR) to the median and right lobes of the liver using external-beam CT-guided x-ray irradiation, and LSECs that express DPPIV (FIG. 2A).\nThe methods were identical to those described above with the exception that the LSEC transplant was administered 4-5 days post irradiation and the TPOm or Romiplostim were administered approximately 10 minutes post LSEC transplant."}, "[2]": {"tested_on": "DPPIV KO mice", "assay": "Engraftment of transplanted LSECs and hepatocytes by DPPIV immunostaining after HIR (Example 7)", "settings": "Study A", "description": "8-12-week-old male Di-peptyl peptidase IV knockout (Dppiv^−/−) mice and 8-12-week-old male C57BL/6 mice were used in this study.\nThe methods were identical to Experiment 5 as described above; including the preparation of test articles (solutions of RWJ-800088), isolation and transplant of LSECs, and Hepatic irradiation. In addition, Romiplostim was purchased from pharmacy and came in 250 μg powder. It was reconstituted per manufacturers description using solvent for solution for injection. After reconstitution, a deliverable volume of 0.5 mL solution contained 250 μg of romiplostim (500 μg/mL).\nAnimals were weighed in the beginning of the experiment.\nThe mice were transplanted with DPPIV^+ 5×10^5 liver sinusoidal endothelial cells (LSECs) intrasplenically 4 or 5 days later. The mice were then injected with 300 μg/kg of RWJ-800088 or Romiplostim intraperitoneally 10 minutes after LSEC transplantation as shown in Table 7.\nThe mice were then monitored until they made a full recovery and returned to the cage. The mice were followed for 2 and 5 months and necropsied. The liver was excised and prepared for the frozen section. The immunostaining of DPPIV activity was performed to examine the repopulation of the transplanted DPPIV^+ cells in the liver. […]"}, "[3]": {"tested_on": "Hemophilia A mice", "assay": "Survival after tail bleed challenge (Example 6)", "settings": "HIR+LSECs+drug, control Hemophilia A mice 100% died within 5 days", "description": "(§1) 8-16-week-old male C57/BL6 mice, 8-16-week-old female and male B6129SF2/J mice (donor for isolating LSECs) and 8-16-week-old female and male Hemophilia mice (F^8tm1Kaz) mice were used in this study. Mice were housed in groups of up to 5 in micro-isolator cages on stainless steel racks (Allentown, Inc., Allentown, N.J.) with a total floor space of 500 cm^2. The cages utilized an external water bottle and a dual feeder rack (Fisher Scientific, Hampton, N.H.). These cages were stored in the storage rack which provided temperature, humidity, and ventilation control to each individual cage (Allentown, Inc.). Bed-o'Cobs ⅛″ (Fisher Scientific) were used as bedding material in each cage.\n(§2) The methods were identical to Experiment 5 as described above; including the preparation of test articles (solutions of RWJ-800088 and AdHGF), isolation and transplant of LSECs, and Hepatic irradiation.\nThe livers of mice were irradiated at 50 Gy by using an X-ray irradiator (SARRP). At 24 hours post-irradiation, the LSECs (1×10^6 cells/mouse) were injected to the mouse through tail vein. An incision was made in the tail from each mouse at day 60 after hepatic irradiation (HIR) and subjected to the bleeding test.\nRWJ-800088 (300 μg/kg) was administrated subcutaneously at 10 min after LSEC transplantation. AdHGF at 1×10^9 PFU/mouse was administrated intraperitoneally at 24 hours after LSEC transplantation. […]"}, "[4]": {"tested_on": "Hemophilia A mice", "assay": "Drabkin's tail bleeding assay (Example 6)", "description": "as §1, §2\nThe livers of mice were irradiated at 50 Gy by using an X-ray irradiator (SARRP). At 24 hours post-irradiation, the LSECs (1×10^6 cells/mouse) were injected to the mouse through tail vein. […]\nA tail bleeding test was performed in which the extent of bleeding and time to clotting over the course of 30 minutes was evaluated. FVIII protein levels were evaluated by Western blot and mRNA profiling in the blood and liver to evaluate the extent to which there was engraftment of functioning LSECs that produce FVIII. […]"}}, "note": "“Also recorded” adds a separate entry of the source.", "data": [{"substance": "methoxypolyethyleneglycol20000-propionyl-L-Isoleucyl-L-Glutamyl-Glycyl-L-Prolyl-L-Threonyl-L-Leucyl-L-Arginyl-L-Glutaminyl-L-2-Naphthylalanyl-L-Leucyl-L-Alanyl-L-Alanyl-L-Arginyl-Sarcosyl-Ne-(methoxypolyethyleneglycol20000-propionyl-L-Isoleucyl-L-Glutamyl-Glycyl-L-Prolyl-L-Threonyl-L-Leucyl-L-Arginyl-L-Glutaminyl-L-2-Naphthyl alanyl-L-Leucyl-L-Alanyl-L-Alanyl-L-Arginyl-Sarcosyl-)-Lysinamide [RWJ-800088]", "values": [{"measurement": "repopulation of irradiated liver by transplanted DPPIV(+/+) LSECs (DPPIV staining)", "setting": "[1]; 50GY HIR + LSEC transplant 24 hrs post HIR, growth stimulus given after transplant, listed as TPOm", "result": "massive LSEC repopulation"}, {"measurement": "animals with some level of hepatic repopulation", "setting": "[1]; LSEC+TPOm+HIR", "result": "6/7"}, {"measurement": "Engraftment when LSEC transplant is administered 24 hours post irradiation", "setting": "[1]; targeted liver irradiation (50 Gy)", "result": "Yes"}, {"measurement": "Engraftment when LSEC transplant is administered 4-5 days post irradiation", "setting": "[1]; targeted liver irradiation (50 Gy), drug approximately 10 minutes post LSEC transplant", "result": "Yes"}, {"measurement": "repopulation of LSECs in the irradiated liver tissue (DPPIV immunostaining)", "setting": "[2]; 2 months after HIR, 50 Gy, LSECs 4 or 5 days after HIR, 300 μg/kg intraperitoneally 10 minutes after LSEC transplantation", "result": "repopulation of LSECs in the irradiated liver tissue was observed"}, {"measurement": "DPPIV staining of liver lobes", "setting": "[2]; 5 months after HIR, two surviving mice (mouse 1: median, right, left lobes; mouse 2: median and right lobes), listed as RWJ-80088", "result": "extensively positive staining; also recorded: strong DPPIV staining"}, {"measurement": "DPPIV staining of 4 different liver lobes", "setting": "[2]; one mouse at 2 months after HIR, median lobe least area covered", "result": "All 4 lobes showed positive staining"}, {"measurement": "survival 30 days post tail bleed challenge", "setting": "[3]", "result": 100, "unit": "%"}, {"measurement": "haemoglobin loss (haemoglobin concentration in the collection tube) compared to FVIII deficient model", "setting": "[4]; HIR 50 Gy + LSECs + drug", "result": "significant decrease"}, {"measurement": "bleeding and clotting time in functional bleeding assay", "setting": "[4]; HIR + LSEC transplantation + RWJ-800088", "result": "reduced bleeding and clotting time similar to non-Hemophilia A controls"}]}]}
